# US8133971B2, “Polypeptide specifically bound to phosphatidylserine and the use thereof” (Kyungpook National University Industry Academic Cooperation …, priority 2008, dated 2012)
# Ends that are not written are not given here. fluorescein = fluorescein bonded at the N-terminus
# Experiments:
# H460 cells = assay: fluorescence and confocal microscopy of peptide and annexin V marking of cells; type: cell-based, Human; details: for marking of apoptotic cells (fluorescent microscope) / marking of normal cells (fluorescent microscope): fluorescein peptide 10 μM, annexin V Alexa fluor 594; for marking of normal cells (fluorescent microscope): normal H460 cells
# Experimental: H460 cells are cultured in a chamber slide (Nalgen Nunc Int.) and apoptosis is induced as described in embodiment 4-1. The apoptotic cells are washed with PBS and then the cells are cultured in tyrodes buffer in the presence of a peptide marked with 10 μM of fluorescein for 30 minutes at room temperature. After that, the cells are cultured with annexin V Alexa fluor 594 (Molecular Probes) for 15 minutes at room temperature. The cells are washed with PBS and then fixed with 4% of paraformaldehyde for 5 minutes. After that, the cells are counterstained by 4′,6-diamidino-2-phenylindole (DAPI) and then the cells are treated with a mounting solution to take a picture by fluorescent microscope (Zeiss, Oberkochen, Germany).
# Also as shown in the FIG. 4C, the image is taken by a laser confocal microscope (LEICA).
# [1] = tested on: apoptotic cells (H460 cell); assay: competitive inhibition of phage binding to apoptotic cells (phage titer); type: cell-based, Human; details: for phage titer of selected phage bound to apoptotic cells after peptide treatment: peptide 50 μM, H460, versus un-treated group
# Experimental: The specificity of the phage to phosphatidylserine bound to apoptotic cells is tested by competitive inhibition with annexin V.
# A pre-cultured group, which is cultured for 30 minutes with annexin V (10 μM) before the apoptotic cells (H460 cell) are cultured with the phage, is used for the test. And a control group, which is not pre-cultured with annexin V, is used for the test. Phages are bound and eluted as described in the embodiment 4-1 and then phage titer is measured.
# And, phage titer of a group treated with the synthesized peptide (50 μM) according to CLSYYPSYC (SEQ ID NO: 1) of amino acid sequence, which is shown in the selected phage clone, is measured. Phage titer of an un-treated group and a group treated with the peptide of the control group are measured. Phages are bound and eluted as described in the embodiment 4-1 and then phage titer is measured.
# H460 tumor xenografts [2] = assay: histological test of in vivo homing (CD31 staining, TUNEL, organs); details: for peptide observed in tumor region stained by CD31: fluorescence microscope
# Text: For a histological test, the above mouse undergoes anesthesia and then undergoes laparotomy. PBS and 4% paraformaldehyde (PFA) fixing agent is used for perfusion, and then tumor tissue and organs are removed. After cryosection of each tissue, the peptide of the present embodiment is observed by fluorescence microscope. Tumor vessels are stained by immunohistochemistry using an antibody (BD Pharmigen) to the mouse CD31 and alexa 568 labeled secondary antibody. Cell death in a tumor tissue is verified by TUNEL ([…] terminal deoxynucleotidyl transferase-mediated dUTP nick-end labeling) analyses according to the manufacturer's manual (Chemicon Int. USA).
# H460 cell = assay: FACS analysis of labeled peptide binding to normal or apoptotic cells; type: cell-based, Human; details: fluorescein at N-end, 2.5 μM, 15 minutes; for binding of labeled peptide to apoptotic cells by FACS: apoptotic H460 cell
# Experimental: Apoptotic cells are treated with a labeled peptide of the present embodiment and then FACS analyses are carried out to confirm that whether the peptide of the present embodiment is bound to phosphatidylserine of apoptotic cells or not.
# The peptide used in the present embodiment has a form in which fluorescein is bonded at N-end. The peptide is synthesized according to the standard Fmoc method and separated by HPLC (Peptron Co.) before use.
# The final concentration of the peptide of the present embodiment or the control group peptide (amino acid sequence: NSSVDK (SEQ ID NO: 8)) is 2.5 μM and the solution is dissolved in Hepes buffer (pH7.4, Hepes 10 mM, […] 138 mM, and with/without CaCl2). The solution is mixed with normal H460 cell or dead H460 cell (1×10^5 cells/mL) to become 0.5 mL of final volume and then cultured for 15 minutes at room temperature. The cells are washed with a binding buffer and then FACS analyses are immediately carried out (FACSScan, Becton Dickinson, San Jose, Calif.).
# H460 tumor xenografts [3] = assay: in vivo homing and in vivo/ex vivo visualization in tumor xenografts; parameters: species or system BALB/c male nude mouse; details: for ex vivo fluorescein signal from tumor tissue: tumor removed 2 hours after peptide injection; for in vivo fluorescein signal from tumor tissue: 50 μM through tail vein, after 2 hours
# Experimental: All of animal experiments are carried out in accordance with guidelines of the kyoungpook national university. For tumor xenografts, H460 cells (1×10^7 cells) floated on RPMI medium containing 10% FBS are injected hypodermically at a right shoulder of a 6 week old BALB/c male nude mouse (SLC, Inc.). Then, tumor cells are allowed to grow about 0.5 to 1.0 cm for 3 weeks.
# The mice having tumor cells are divided into a camptothecin treated group and untreated group, and then the camptothecin treated group is taken a dose of camptothecin (Sigma, 10 mg/kg) at 24 hours before peptide treatment. After that, fluorescein-labeled peptide (fluorescein-labeled CLSYYPSYC (SEQ ID NO: 1)) (50 μM) of the present embodiment or a control group peptide (50 μM) is injected through tail vein under isoflurane anesthesia. The peptide induced to the tumor cells are checked at every hour by the optical visualization system (ART Advanced Research Technologies Inc., Montreal, Canada) using […]/GFP filter after peptide injection. To each used mouse, baseline fluorescence of fluorescein is measured before peptide injection. The obtained image is treated and normalized by eXplore Optix optiView Software. After 2 hours of the peptide injection, the tumor is removed from the mouse and then ex vivo visualization of the tumor cell is carried out. The image is treated as above.
# [4] = phosphatidylserine binding of phage clone in the presence of annexin V (phage ELISA); details: annexin V protein 10 μM
# Experimental: The phosphatidylserine binding specificity of the selected phage clone is tested by phosphatidylserine binding in the presence of annexin V.
# In short, Immulon 1B microtiter plate is coated with phosphatidylcholine as described in the embodiment 1-2. Then, the plates are blocked with TBS medium containing 10 mg/mL of BSA for 1 hour at room temperature.
# The selected phage clone is added to 100 μl of TBS buffer and then the mixture is added to the well coated with phosphatidylcholine. The well is gently shaken for 1 hour at room temperature (incubate). In a group in which annexin V is added, the above phage clone is cultured in the presence of annexin V protein (10 μM) and then 100 μl of TBS buffer is added to the phage clone. The mixture is added to the well coated with phosphatidylserine and then the well is gently shaken for 1 hour at room temperature. The well is strongly washed with TBS-T (TBS containing 0.05% Tween-20) buffer for 6 times and then phages bound to the well are detected by binding HRP (horseradish peroxidase)-bound anti-M13 antibody (New England Biolabs) (dilution, 1:4000 in TBS-T) for 1 hour at room temperature. After that, color reaction is carried out with HRP substrate suspension (TMB, Pierce). The color reaction is stopped by adding 2N H2SO4 and then absorbance is measure by the microplate reader (Bio-Rad, model 550) at 450 nm.
# [5] = annexin V binding test of coated plate; details: his-tagged recombinant annexin V 20 μg/mL, 1 hour at room temperature
# Experimental: For the preparation of a plate (or well) coated by phosphatidylserine or phosphatidylcholine, phosphatidylserine or phosphatidylcholine is dissolved in ethanol (300 μg/mL, 100 μL), and then the solution is placed and dried in Immulon 1B microtiter plate (Thermo, Milford, Mass., USA) for 6 hours in air. To prevent from non-specific binding, TBS (Tris-HCl 50 mM, pH7.4, NaCl 150 mM) containing 10 mg/mL of BSA (bovine serum albumin) is added to the solution and then blocking is performed for 1 hours at room temperature. The plates coated by phosphatidylserine or phosphatidylcholine are evaluated by annexin V binding test so as to use a coated plate.
# To bind annexin V, his-tagged recombinant annexin V protein (20 μg/mL) is dissolved in TBS buffer containing 10 mg/mL of BSA and then the solution is placed ELISA plate coated by phosphatidylserine or phosphatidylcholine. After 1 hour of standing at room temperature, the plate is washed by TBS-T buffer for 3 times and the bound annexin V protein is reacted with mouse anti histidine IgG antibody (Santa Cruz Biotechnology) to which HRP is bound and then binding is tested by the reaction with TBM base.
substance,measurement,setting,value
CLSYYPSYC [peptide of the present embodiment],marking of apoptotic cells (fluorescent microscope),H460 cells; apoptotic H460 cells,marking is occurred in both cases
same,binding site on apoptotic cells compared with annexin V,"H460 cells; apoptotic H460 cells, photo composition / laser confocal microscope",bound to the same site
same,marking of normal cells (fluorescent microscope),H460 cells,marking is not occurred
same,phage titer of selected phage bound to apoptotic cells after peptide treatment,[1],greatly decreased
same,location of peptide fluorescent signal relative to TUNEL staining in tumor,H460 tumor xenografts [2]; TUNEL analyses of tumor tissue,observed mainly in the TUNEL stained region
same,peptide observed in liver and lung tissue,"H460 tumor xenografts [2]; control group organs, cryosection",not observed
same,peptide observed in tumor region stained by CD31,H460 tumor xenografts [2]; cryosection,a large amount
same,fluorescence by the peptide in kidney,"H460 tumor xenografts [2]; cryosection, excreted peptide in the uresis path",observed
same,binding of labeled peptide to apoptotic cells by FACS,H460 cell,certainly bound
same,binding of labeled peptide to normal cells by FACS,H460 cell; normal H460 cell,not certainly bound
same,ex vivo fluorescein signal from tumor tissue,H460 tumor xenografts [3],intensively monitored
"NSSVDK [control group peptide, reference compound]",marking of apoptotic cells (fluorescent microscope),H460 cells; apoptotic H460 cells,marking is occurred in annexin V case only
same,phage titer of selected phage bound to apoptotic cells after peptide treatment,[1],no difference
same,peptide observed in tumor region stained by CD31,H460 tumor xenografts [2]; cryosection,not observed
same,binding of labeled peptide to apoptotic cells by FACS,H460 cell,not certainly bound
same,in vivo fluorescein signal from tumor tissue,H460 tumor xenografts [3],very weakly monitored or not monitored
same,ex vivo fluorescein signal from tumor tissue,H460 tumor xenografts [3],very weakly monitored or not monitored
"annexin V: annexin V protein, phosphatidylserine-binding reference (his-tagged recombinant or Alexa fluor 594 labeled)",marking of apoptotic cells (fluorescent microscope),H460 cells; apoptotic H460 cells,marking is occurred
same,marking of normal cells (fluorescent microscope),H460 cells,marking is not occurred
same,phage titer of selected phage bound to apoptotic cells after annexin V pre-treatment,"[1]; annexin V 10 μM, pre-cultured 30 minutes, H460",greatly decreased
same,inhibition of phosphatidylserine binding of the selected phage clone,[4],inhibits
same,annexin V binding to coated plate,[5],certainly bound
fluorescein-labeled CLSYYPSYC (fluorescein-CLSYYPSYC; cysteine pairing not given here) [… peptide with fluorescein bonded at N-end],in vivo fluorescein signal from tumor tissue,H460 tumor xenografts [3],intensively detected
